Values quoted from earlier work, collected in US20110294894A1, “Pharmaceutical Composition for the Treatment of Solar Urticaria” (priority 2010, published 2011).

System: severe antihistamine-resistant solar urticaria
Details: single case, Güzelbey et al., 2008

In the case of omalizumab, the “effectiveness in solar urticaria” value is given as “effective”.
